The source of these data is ChEMBL document CHEMBL1126089, “2-Alkynyl derivatives of adenosine and adenosine-5'-N-ethyluronamide as selective agonists at A2 adenosine receptors” (J Med Chem, 1992).

For experiment [1], the target named is T1, Adenosine A2 receptor (Homo sapiens, UniProt P29275+P29274). Description: Maximal NECA stimulation of adenylate cyclase via adenosine A2 receptor in human platelet membranes. It counts as cell membranes.
Experiment [2] can be described thus: Selectivity as ratio of IC50 for A1 adenosine receptor compared to EC50 for A2 adenosine receptor.
In experiment [3] the target is T2, Adenosine receptor A1 (Rattus norvegicus, UniProt P25099).
T2 sequence (P25099 whole entry): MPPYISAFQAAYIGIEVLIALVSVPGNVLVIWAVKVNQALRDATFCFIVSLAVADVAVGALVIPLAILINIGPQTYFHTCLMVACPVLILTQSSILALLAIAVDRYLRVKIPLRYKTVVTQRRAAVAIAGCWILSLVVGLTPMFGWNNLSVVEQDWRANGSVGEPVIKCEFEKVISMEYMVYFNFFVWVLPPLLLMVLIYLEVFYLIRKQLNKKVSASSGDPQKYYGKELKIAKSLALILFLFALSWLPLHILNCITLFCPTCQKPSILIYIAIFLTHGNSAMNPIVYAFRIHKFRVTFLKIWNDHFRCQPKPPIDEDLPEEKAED
Description: Binding affinity against low affinity component of adenosine A1 receptors from rat brain membranes using [3H]-DPCPX

The target of experiment [4] is T1, Adenosine A2 receptor.
For experiment [5], the target named is T2, Adenosine receptor A1. This is another data set of the same source.
Description: Binding affinity against high affinity component of adenosine A1 receptors from rat brain membranes using [3H]DPCPX
Experiment [6] addresses T3, Adenosine A2 receptor (Rattus norvegicus, UniProt P29276+P30543).
For experiment [7], the target named is T2, Adenosine receptor A1. As to the kind of experiment: Inhibition of adenylate cyclase via adenosine A1 receptors in rat fat cell membranes. Type of experiment: functional, Membrane.
The target of experiment [8] is T2, Adenosine receptor A1. This is another data set of the same source.
Description: Binding affinity against adenosine A1 receptors from rat brain membranes using [3H]CCPA
Experiment [9] addresses T1, Adenosine A2 receptor. As to the kind of experiment: Agonistic activity at adenosine A2 receptor. Type of experiment: functional.
The target of experiment [10] is T1, Adenosine A2 receptor. As to the kind of experiment: Maximal NECA stimulation of adenylate cyclase via Adenosine A2 receptor in human platelet membranes. Type of experiment: cell membranes.
Experiment [11] concerns the target T3, Adenosine A2 receptor. Description: Binding affinity against A2 adenosine receptors from rat striatal membranes with 50 nM CPA using [3H]NECA.
In experiment [12] the target is T1, Adenosine A2 receptor. Description: Maximal NECA stimulation of adenylate cyclase via A2 receptors in human platelet membranes. It counts as cell membranes.
Experiment [13] deals with T1, Adenosine A2 receptor. Description: Agonistic activity at Adenosine A2 receptor. Type of experiment: functional.
The target of experiment [14] is T2, Adenosine receptor A1. As to the kind of experiment: Binding affinity against Adenosine A1 receptor from rat brain membranes using [3H]CCPA.
Experiment [15] has as its target T2, Adenosine receptor A1. Description: Inhibition of adenylate cyclase via Adenosine A1 receptor in rat fat cell membranes. It counts as functional, Membrane.
Experiment [16] addresses T2, Adenosine receptor A1. As to the kind of experiment: Binding affinity against low affinity component of Adenosine A1 receptor from rat brain membranes using [3H]DPCPX. It counts as cell membranes, Membrane.
Experiment [17] has as its target T2, Adenosine receptor A1. Description: Binding affinity against high affinity component of Adenosine A1 receptor from rat brain membranes using [3H]-DPCPX. It counts as cell membranes, Membrane.
The target in experiment [18] is T2, Adenosine receptor A1. Description: Inhibition of adenylate cyclase via A1 receptors in rat fat cell membranes. Type of experiment: functional, Membrane.
Experiment [19] addresses T1, Adenosine A2 receptor. As to the kind of experiment: Maximal NECA stimulation of adenylate cyclase via Adenosine A2 receptor in human platelet membranes. It counts as cell membranes.
In experiment [20] the target is Adenosine A2a receptor (Rattus norvegicus) (UniProt P30543). As to the kind of experiment: Binding affinity against Adenosine A2 receptor from rat striatal membranes with 50 nM CPA using [3H]-NECA.
Experiment [21] deals with Adenosine A2 receptor (Rattus norvegicus) (UniProt P29276+P30543). Description: Binding affinity against Adenosine A2 receptor from rat striatal membranes with 50 nM CPA using [3H]NECA.
In experiment [22] the target is T1, Adenosine A2 receptor. Description: Binding affinity against Adenosine A2 receptor from human platelet membranes using [3H]NECA.
The target in experiment [23] is T2, Adenosine receptor A1. Description: Binding affinity against A1 adenosine receptors from rat brain membranes using [3H]CCPA.
Experiment [24] addresses T3, Adenosine A2 receptor. Description: Binding affinity against Adenosine A2 receptor from rat striatal membrane with 50 nM CPA using [3H]NECA.
Experiment [25] addresses T1, Adenosine A2 receptor. Description: Binding affinity against A2 adenosine receptors from human platelet membranes using [3H]NECA.

Adenosine A2a receptor (Rattus norvegicus), sequence (P30543 whole entry, looked up): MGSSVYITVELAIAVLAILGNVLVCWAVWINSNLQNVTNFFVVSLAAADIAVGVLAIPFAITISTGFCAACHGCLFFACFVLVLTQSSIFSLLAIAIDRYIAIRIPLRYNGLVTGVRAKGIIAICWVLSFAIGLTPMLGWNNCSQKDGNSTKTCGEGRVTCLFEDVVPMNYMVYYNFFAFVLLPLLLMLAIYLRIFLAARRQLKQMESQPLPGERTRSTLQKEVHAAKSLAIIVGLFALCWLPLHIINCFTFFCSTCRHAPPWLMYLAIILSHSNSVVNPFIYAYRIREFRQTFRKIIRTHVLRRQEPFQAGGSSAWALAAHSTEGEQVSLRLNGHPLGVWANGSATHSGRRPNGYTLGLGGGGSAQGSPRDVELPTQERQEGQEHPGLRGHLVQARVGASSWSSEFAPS

For the molecule `CCCCCC#Cc1nc(N)c2ncn([C@@H]3O[C@H](CO)[C@@H](O)[C@H]3O)c2n1`, in [1], the EC50 (in general, the concentration needed to bring the measured effect to its halfway point) was found to be 0.414 µM. The A2 selectivity in experiment [2] was 8. Further, the Ki (in general, the dissociation constant of the complex between target and ligand, obtained from inhibition or displacement) in experiment [3] was 1.22 µM; in [4] it was 0.0208 µM; in [5] it was 0.0322 µM; in [6], 0.0028 µM; in experiment [8] it was 0.0284 µM. In addition, inhibition in [7] was half-maximal at 3.38 µM (IC50). The maximum response (Emax) (in general, the greatest response seen or fitted, relative to the assay's reference) in experiment [9] worked out at 65%.

On to `CCCCC#Cc1nc(N)c2ncn([C@@H]3O[C@H](CO)[C@@H](O)[C@H]3O)c2n1`, for which the Ki was 0.633 µM in [3], 0.0125 µM in experiment [5] and 0.0159 µM in experiment [8]. The IC50 (as a rule, the concentration that gives 50% inhibition) in experiment [7] was determined as 2.3 µM. In experiment [9], this molecule displayed an Emax of 65%.

In the case of `CCCCCC#Cc1nc(N)c2ncn(C3O[C@H](C(=O)NCC)[C@@H](O)[C@H]3O)c2n1` (some centres undefined), the results for the EC50 in [10] and in experiment [12] were 0.0371 µM and 0.388 µM, respectively. Further, the A2 selectivity in [2] amounted to 34. For the same molecule, the inhibition constant (Ki) is 0.0047 µM in [11], 0.089 µM in experiment [14], 2.91 µM in [16] and 0.171 µM in [17]. For the same molecule, the Emax in experiment [13] came to 100%. Besides, the IC50 in experiment [15] amounted to 13.1 µM.

In experiment [1], `CCCCC#Cc1nc(N)c2ncn([C@@H]3O[C@H](C(=O)NCC)[C@@H](O)[C@H]3O)c2n1` had a concentration giving a half-maximal response (EC50) of 0.105 µM. Moreover, the A2 selectivity in experiment [2] is 42. The Ki in experiment [3] was found to be 3.16 µM; in [4] it was 0.0057 µM; in [5], 0.136 µM; in experiment [6], 0.0038 µM; in experiment [8], 0.0439 µM. The molecule further came in with an IC50 in experiment [7] of 4.38 µM. This molecule also registered a maximum response (Emax) in [9] of 100%.

`CCCC#Cc1nc(N)c2ncn([C@@H]3O[C@H](C(=O)NCC)[C@@H](O)[C@H]3O)c2n1`: the A2 selectivity was 44 in experiment [2] and 2 in [21]. Besides, the values for the 50% inhibitory concentration (IC50) in [18] and in experiment [15] were 2.7 µM and 1.62 µM, respectively. The figures for the concentration for a half-maximal effect (EC50) in experiment [19] and in experiment [20] were 0.0195 µM and 0.062 µM, respectively. This molecule also registered a maximal response (Emax) in experiment [13] of 100%. For the same molecule, the results for the inhibitory constant (Ki) in experiment [22], in experiment [23] and in experiment [17] were 0.0126 µM, 0.0408 µM and 0.033 µM, respectively.

The molecule `CCCCCCC#Cc1nc(N)c2ncn([C@@H]3O[C@H](CO)[C@@H](O)[C@H]3O)c2n1` showed an EC50 in [1] of 0.681 µM. In addition, in [2], the A2 selectivity came out at 4. Also, the inhibitory constant (Ki) in [3] amounted to 0.823 µM; in experiment [4], 0.0399 µM; in experiment [5], 0.0196 µM; in experiment [6] it was 0.0063 µM; in [8] it was 0.0252 µM. It took 2.91 µM to reach half-maximal inhibition in experiment [7] (IC50). Besides, the Emax in experiment [9] came out at 65%.

For the molecule `CCCC#Cc1nc(N)c2ncn([C@@H]3O[C@H](CO)[C@@H](O)[C@H]3O)c2n1`, the EC50 in experiment [1] was 0.127 µM. In [2], the A2 selectivity was found to be 24. Also, the inhibition constant Ki in experiment [3] was determined as 0.849 µM; in experiment [4], 0.0073 µM; in experiment [5], 0.016 µM; in experiment [6] it was 0.0164 µM; in [8] it was 0.0215 µM. In experiment [7], this molecule displayed a half-inhibitory concentration (IC50) of 3 µM. In experiment [9], the Emax was 65%.

Turning to `CCCCCCC#Cc1nc(N)c2ncn(C3O[C@H](C(=O)NCC)[C@@H](O)[C@H]3O)c2n1` (some centres undefined), the concentration giving a half-maximal response (EC50) in [10] was 13.5 µM; in experiment [12], 0.585 µM. Also, the A2 selectivity in [2] was 23. Besides, the Ki in experiment [24] was found to be 0.0148 µM; in experiment [14], 0.0644 µM; in experiment [25] it was 0.159 µM; in [16] it was 2.94 µM; in experiment [17], 0.067 µM. Also, the Emax in [13] turned out to be 100%.
